The results in this text go back to paper PMC7394005, “Assessing the Selectivity of FXR, LXRs, CAR, and RORγ Pharmaceutical Ligands With Reporter Cell Lines” (Frontiers in Pharmacology, 2020).

Common to all, as to assay type: cell-based
The target of series [1] is T1, human LXRβ (Homo sapiens, UniProt P55055).
T1 construct: LXRβ (G199-E461); expressed in transfected cells; host or cells: HG5LN (HeLa cells carrying the (GAL4RE)5-βGlob-Luc-SVNeo reporter)
T1 sequence (P55055 198-460 limits assumed): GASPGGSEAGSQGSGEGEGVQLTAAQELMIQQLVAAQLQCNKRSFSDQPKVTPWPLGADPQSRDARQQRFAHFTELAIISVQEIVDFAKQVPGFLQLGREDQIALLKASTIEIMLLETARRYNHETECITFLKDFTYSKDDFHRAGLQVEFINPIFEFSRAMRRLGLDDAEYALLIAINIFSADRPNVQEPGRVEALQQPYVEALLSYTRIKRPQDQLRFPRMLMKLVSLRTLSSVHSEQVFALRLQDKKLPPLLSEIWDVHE
Briefly: HG5LN GAL4-LXRβ reporter cell line, antagonist mode in presence of T0901317. The conditions noted are these: read-out: LXRβ (T0901317 100 nM) IC50; in presence of T0901317 100 nM; NE = No effect. The source says:
(§1) To construct GAL4-NR chimeras, individual LBDs of human FXR (R193-Q486), LXRα (A187-E447), LXRβ (G199-E461), CAR (M76-S348), and RORγ (S97-K518) were amplified by PCR with primers containing XhoI and SacI restriction sites (FXR), XhoI and BamHI (LXRs, CAR, RORγ) and inserted in pSG5-GAL4(DBD)-puromycin plasmid. To construct GAL4-CAR (+ APYLT) (M76-S353), the five amino acids APYLT were inserted by overlap extension PCR between amino acids P270 and D271 of CAR.
(§2) To characterize the specificity of chemicals for human FXR, LXRα, LXRβ, CAR and RORγ, we established in a similar manner HG5LN FXR, LXRα, LXRβ, CAR WT, CAR (APYLT) and RORγ reporter cell lines. […] These cells were stably transfected by pSG5-GAL4 (DBD)-NRs (LBD)-puromycin plasmid and selected in presence of 0.5 µg/ml puromycin. […] From each HG5LN NR cells, 5 to 10 clones were chosen for their ligand inducibility of luciferase expression. […] The most inducible clones were expanded and rechecked for inducibility and aliquots were frozen at different passages. One clone per receptor was maintained in culture and used for ligand screening. HG5LN cells were cultured in Dulbecco’s modified Eagle’s medium (DMEM): Nutrient Mixture F-12 (DMEM/F-12) containing phenol red and 1 g/l glucose and supplemented with 5% fetal bovine serum, 100 units/ml of penicillin, 100 µg/ml of streptomycin and 1 mg/ml geneticin, in 5% CO2 humidified atmosphere at 37°C. Stably transfected cell lines derived from HG5LN cells were cultured in the same culture medium supplemented with 0.5 µg/ml puromycin.
(§3) Individual reporter cell lines were seeded at a density of 40,000 cells per well in 96-well white opaque tissue culture plates (Greiner CellStar) in Dulbecco’s Modified Eagle Medium: Nutrient Mixture F-12 (DMEM/F-12) without phenol red and 1 g/l glucose and supplemented with 5% stripped fetal bovine serum, 100 units/ml of penicillin, 100 µg/ml of streptomycin (test medium). Chemicals to be tested were added 24h later, and cells were incubated at 37°C for 16h. Experiments were performed in quadruplicates. At the end of the incubation period, culture medium was replaced with test medium containing 0.3 mM luciferin solution. Luciferase activity was measured for 2s in intact living cells after 10 min stabilization using a Micro Beta Wallac luminometer (PerkinElmer). EC50 values were calculated using GraphPad Prism (GraphPad Software Inc).
(§4) Chemicals tested for agonism on FXR, LXRs, CAR (+ APYLT), PXR, and antagonism on CAR and RORγ were tested alone, without addition of any other ligand.
(§5) In the transactivation assay, each compound was tested at various concentrations in three independent experiments at least. For each experiment, tests were performed in quadruplicates for each concentration, and data are expressed by means values with standard deviations. Individual agonist dose–response curves, in the absence and presence of antagonist, were fitted using the sigmoid dose-response function of a graphics and statistics software program (GraphPad Prism, version 5.0). EC50 (effective concentration for half-maximal luciferase activity) and IC50 (half-maximal inhibitory concentration) values were calculated from equations used to fit the data in this graphic software. Transactivation data are presented as EC50 and IC50 values for each compound tested. To analyze significances, we compared individual compound treatments with controls using one-way analysis of variance (ANOVA) with the help of GraphPad Prism software.

The target of series [2] is T2, human LXRα (Homo sapiens, UniProt Q13133).
T2 construct: LXRα (A187-E447); expressed in transfected cells; host or cells: HG5LN (HeLa cells carrying the (GAL4RE)5-βGlob-Luc-SVNeo reporter)
T2 sequence (Q13133 187-447): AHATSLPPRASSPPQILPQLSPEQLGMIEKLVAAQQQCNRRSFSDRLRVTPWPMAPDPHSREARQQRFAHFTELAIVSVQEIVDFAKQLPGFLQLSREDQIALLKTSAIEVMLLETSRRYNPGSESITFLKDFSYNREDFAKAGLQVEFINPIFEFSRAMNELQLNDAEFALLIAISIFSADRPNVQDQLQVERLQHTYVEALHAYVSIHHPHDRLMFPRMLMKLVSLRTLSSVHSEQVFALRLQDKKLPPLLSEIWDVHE
Briefly: HG5LN GAL4-LXRα reporter cell line, antagonist mode in presence of T0901317. The conditions noted are these: read-out: LXRα (T0901317 20 nM) IC50; in presence of T0901317 20 nM; NE = No effect.
Text: as §1, §2, §3, §4, §5

For series [3], the target named is T1, human LXRβ. Briefly: HG5LN GAL4-LXRβ reporter cell line, agonist mode. Conditions: HG5LN GAL4-LXRβ cells, tested alone; NE = No effect; read-out: LXRβ EC50.
Text: as §1, §2, §3, §4, §5

Series [4] addresses T3, human RORγ (Homo sapiens, UniProt P51449).
T3 construct: RORγ (S97-K518); expressed in transfected cells; host or cells: HG5LN (HeLa cells carrying the (GAL4RE)5-βGlob-Luc-SVNeo reporter)
T3 sequence (P51449 97-518): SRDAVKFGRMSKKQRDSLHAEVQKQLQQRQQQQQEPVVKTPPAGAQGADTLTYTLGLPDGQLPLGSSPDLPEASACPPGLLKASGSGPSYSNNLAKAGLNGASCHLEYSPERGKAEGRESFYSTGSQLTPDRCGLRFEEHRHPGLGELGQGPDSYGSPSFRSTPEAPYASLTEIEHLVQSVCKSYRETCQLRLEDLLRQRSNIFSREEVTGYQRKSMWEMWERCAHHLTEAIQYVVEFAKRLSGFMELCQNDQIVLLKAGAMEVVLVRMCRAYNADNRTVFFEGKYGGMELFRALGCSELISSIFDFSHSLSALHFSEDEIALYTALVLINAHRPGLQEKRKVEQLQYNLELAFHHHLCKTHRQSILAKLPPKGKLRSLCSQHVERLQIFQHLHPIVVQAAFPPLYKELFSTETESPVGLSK
Briefly: HG5LN GAL4-RORγ reporter cell line, inhibition of constitutive activity. The conditions noted are these: inhibition of constitutive activity, tested alone; NE = No effect.
Text: as §1, §2, §3, §4, §5

The target of a further series is T4, human PXR (Homo sapiens, UniProt O75469).
T4 construct: The GAL4-NR chimeric cell lines provide uniform cellular model differing just in receptor LBDs; expressed in transfected cells; host or cells: HG5LN PXR (HeLa-derived; described in Delfosse et al., 2015)
T4 sequence (O75469 146-433 limits assumed): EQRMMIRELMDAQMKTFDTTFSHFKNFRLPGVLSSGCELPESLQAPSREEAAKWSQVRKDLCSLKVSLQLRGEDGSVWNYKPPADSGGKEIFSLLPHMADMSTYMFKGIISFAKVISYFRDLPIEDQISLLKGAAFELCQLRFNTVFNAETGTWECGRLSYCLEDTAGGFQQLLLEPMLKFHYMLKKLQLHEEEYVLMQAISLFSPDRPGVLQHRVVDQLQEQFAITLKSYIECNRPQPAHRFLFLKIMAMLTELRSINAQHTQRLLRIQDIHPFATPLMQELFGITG
Briefly: HG5LN PXR reporter cell line, agonist mode. The conditions noted are these: NE = No effect. On the procedure: as §2, §3, §4, §5

Series [5] deals with T3, human RORγ. Briefly: HG5LN GAL4-RORγ reporter cell line, agonist mode in presence of SR2211. The conditions noted are these: read-out: RORγ (SR2211 1 mM) EC50; in presence of SR2211 1 mM; NE = No effect.
Text: as §1, §2, §3, §4, §5

For series [6], the target named is T2, human LXRα. Briefly: HG5LN GAL4-LXRα reporter cell line, agonist mode. Conditions: HG5LN GAL4-LXRα cells, tested alone; NE = No effect; read-out: LXRα EC50.
Text: as §1, §2, §3, §4, §5

As a reminder, the IC50 is the concentration that gives 50% inhibition. A word on the EC50: it is the concentration needed to bring the measured effect to its halfway point. For the compound `CCC(C)N(C)C(=O)c1cc2ccccc2c(-c2ccccc2Cl)n1` (centres unmarked) [PK11195], the IC50 on human LXRβ [1], on human LXRα [2] and at human RORγ [4] was > 10 µM in each case. Also, the EC50 on human LXRβ [3] was > 10 µM; on human PXR (HG5LN PXR cells, tested alone, read-out: PXR EC50), 0.726 ± 0.056 µM; on human RORγ [5] it was > 10 µM; at human LXRα [6], > 10 µM. Also, at human PXR (maximal luciferase activity at 10^-5 M (10^-6 M *, 3 10^-6 M **), 100% = 3 µM SR12813, DMSO 19 ± 2), the “PXR % max act” value stood at 80%.
